In PMC8157578 (Antioxidants, 2021):

Assays:
plasmid pBR322 DNA [1] = assay: Plasmid DNA strand breakage induced by Fe(III)–citrate/ascorbate/H2O2, agarose gel electrophoresis; assay type: biochemical; conditions: 20 μM Fe(III)–citrate, 10 μM ascorbate, 200 μM H2O2
Procedure: (§1) Plasmid DNA agarose gel electrophoresis was employed to investigate protective effect of CAPE and its analogues against DNA strand breakage induced by an iron-mediated system. For experimental procedure details, please refer to the Supplementary Materials.
Figure 4 Protective effect of CAPE and its analogues against Fe(III)–citrate–ascorbate–H2O2-induced DNA damage. […] The reaction mixture contained 20 μM Fe(III)–citrate, 10 μM ascorbate, and 200 μM H2O2, as well as the indicated concentrations of CAPE and its analogues. The experiments were repeated three times, and only typical images are presented. […]
The experiments were conducted via incubation of plasmid pBR322 DNA (5 μg/mL) at 37 °C for
30 min in Chelex-treated HEPES buffer (100 mM, pH 7.4) with the iron-containing systems, in the
absence or presence of the indicated concentrations of CAPE and its analogues. […]

HeLa cells [2] = assay: Immunofluorescence analysis of intracellular γ-H2AX generation in iron-overloaded HeLa cells (with H2O2); assay type: cell-based, human; conditions: Fe(II)-H2O2 alone 2.86±0.64
Procedure: The immortalized human cervical carcinoma HeLa cell line used in this study was obtained from the Cell Resource Center, Peking Union Medical College. The cell line was checked to be free of mycoplasma contamination by PCR and culture. Its species origin was confirmed with PCR. The identity of the cell line was authenticated with STR profiling (FBI, CODIS). HeLa cells were cultured in a DMEM medium (4 mM L-glutamine, 4500 mg/L glucose, and no sodium pyruvate) with 10% fetal bovine serum (FBS) and 1% penicillin–streptomycin at 37 °C under a 5% CO2 atmosphere.
HeLa cells (10^4/well) were loaded by incubation with 20 μM Fe(II) for 2 h at 37 °C. […] For a detailed experimental procedure, please refer to the Supplementary Materials and our previous report. The experiment was repeated three times. The observation of the fluorescence of γ-H2AX in HeLa cells was conducted with a confocal laser scanning microscope (CLSM) (Leica TCS SP). Thirty cells in each group were randomly selected in different microscopic fields for quantitative detection. In detail, each well was equally divided into nine fields and numbered sequentially from the top right corner. Four fields were randomly selected according to a random number table. Thirty cells were then randomly selected from these four fields. All images were analyzed blind regarding exposure parameters, which were coded by one person and read by another who was blinded to the code. The fluorescence intensity of the γ-H2AX signal on selected images was automatically analyzed using the Image-J software. The Statistical Product and Service Solutions (SPSS 21) program was employed to analyze the data through ANOVA. Significant difference from iron-overloaded group are marked with * p < 0.05, ** p < 0.01, and *** p < 0.001.
(§2) 2.1 Immunofluorescence analysis of intracellular γ-H2AX generation in Hela cells
(§3) Fixed cells were permeabilized with 0.25% Triton-X100 in PBS for 10 min and blocked in 10%
(§4) normal goat serum, 0.1% tween 20 in PBS for 1 hour. The cells were incubated with primary
(§5) monoclonal antibody, γ-H2AX (Ser139, 20E3, Rabbit, mAb #9718) (1:600) overnight at 4°C, and then
(§6) stained secondary antibodies, anti-rabbit Alexa-488 and anti-mouse (Cell Signaling Technology) for
(§7) 1 hour. After Hoechst 33342 (10 μg/mL) staining for 2 min, dishes were mounted in ProLong™ Gold
(§8) Antifade Mountant (Invitrogen™) and stored at 4°C in the dark before confocal laser-scanning by
(§9) Broadband Confocal Leica TCS SP5. The CLSM images were obtained with the following excitation
(§10) respectively. Cells were washed 3 times with PBS (200 μL/well) at intervals. […]

HeLa cells [3] = assay: Labile iron pool (LIP) determination with calcein-AM in iron-overloaded HeLa cells, flow cytometry; assay type: cell-based, human; conditions: 15 min
Procedure: HeLa cells (10^6/mL) were loaded by incubation with 20 μM Fe(II) for 2 h at 37 °C. Subsequently, cells were collected by centrifugation (1000 rpm for 5 min) and incubated with 0.5 μM calcein-AM for 15 min at 37 °C in a D’hanks buffer of pH 7.4. Cells were then washed twice by D’hanks buffer (pH 7.4) and incubated with or without CAPE and its analogues. The fluorescence was monitored by both flow cytometry (BD FACS Caliber) and a CLSM (Leica TCS SP). The experiment was repeated three times.
Figure 3 Effect of CAPE and its analogues on the LIP level in iron-overloaded cells, as measured by flow cytometry (A–D). HeLa cells were pretreated with 20 μM Fe(II) for 2 h and then incubated with calcein-AM. After 15 min, cells were washed and incubated with or without CAPE and its analogues for 15 min. The fluorescence intensity of cells was measured by flow cytometry. Significant differences from the iron-overloaded group are marked with * p < 0.05, ** p < 0.01, and *** p < 0.001. The experiment was repeated three times.

plasmid pBR322 DNA [4] = assay: Plasmid DNA strand breakage induced by Fe(II)–H2O2, agarose gel electrophoresis; assay type: biochemical; conditions: ratio-dependent
Procedure: as §1, §2, §3, §4, §5, §6, §7, §8, §9, §10
ESR spectra were recorded at room temperature in a Bruker ESR 300 spectrometer. […]
The consumption of O2 was measured by Orion 3 dissolved oxygen meter (Thermo Scientific, […]
Corona Needle current was 3000 nA. The size of data points was recorded in 4 M format. […]

[5] = 1-octanol/phosphate buffer partitioning, shake-flask method; assay type: physicochemical; conditions: 1-octanol / 100 mM phosphate buffer pH 7.4, shake-flask
HeLa cells [6] = assay: Labile iron pool (LIP) determination with calcein-AM in iron-overloaded HeLa cells, flow cytometry; assay type: cell-based, human; conditions: 50 μM compound alone, no iron
HeLa cells [7] = assay: Auto-fluorescence of HeLa cells after incubation with compound (cell uptake); assay type: cell-based, human; conditions: HeLa cells incubated two hours, auto-fluorescence Ex ~330 nm, Em ~450 nm
From the text: Subsequently, cells were washed and collected by centrifugation, the fluorescence of cells (105) was monitored by Thermo Scientific Varioskan Flash (Thermo Fisher scientific, USA) ***Significant difference from iron-overloaded group, p < 0.001.

[8] = ESR spin-trapping (DMPO) of •OH generated by Fe(III)–citrate–ascorbate–H2O2; assay type: biochemical; conditions: 100 μM Fe(III)–citrate, 100 μM ascorbate, 1 mM H2O2
Procedure: The basic system used in this study consisted of Fe(III)/Fe(II), ascorbate, H2O2, and the spin trapping agent DMPO (100 mM) in 20 mM HEPES (pH 7.4) with or without CAPE and its analogues.
The reaction mixture contained 100 μM Fe(III)–citrate, 100 μM ascorbate, and 1 mM H2O2, as well as the indicated concentrations of CAPE and its analogues. The experiments were repeated three times, and only typical spectra are presented.
2.3 Electron spin resonance (ESR) spin-trapping studies
spectrometer parameters were as follows: scan range, 100 G; field set, 3470 G; time constant, 200 ms;
scan time, 100 s; modulation amplitude, 1.0 G; modulation frequency, 100 kHz; receiver gain,

[9] = Cyclic voltammetry of Fe(III) chelated by ligand; assay type: physicochemical; conditions: 100 mM PB pH 7.4, SCE reference, 2 mV/s; Fe(III) alone approximately −0.65 V
Procedure: CV was performed in 100 mM PB (pH 7.4) on a Princeton Applied Research (VersaSTAT3) potentiostat with a Pt wire as the counter electrode, a saturated calomel electrode (SCE) as the reference electrode, and a glassy carbon electrode (5 mm in diameter) as the working electrode. The scan rate was 2 mV/s.

O=C(/C=C/c1ccc(O)c(O)c1)OCCc1ccccc1 [CAPE, Caffeic acid phenethyl ester]
Protective effect against Fe(III)–citrate–ascorbate–H2O2-induced DNA damage, in words (plasmid pBR322 DNA [1]): significantly inhibited | Concentration range with the stated inhibition of Fe(III)-citrate-Vc-H2O2 induced DNA damage (plasmid pBR322 DNA [1]; CAPE significantly, CA slightly): 40 to 200 µM | Fluorescence intensity of γ-H2AX (HeLa cells [2]; Fe(II)-H2O2 + 2 μM compound): 3.07±0.54 Fold of Control | Fluorescence intensity of γ-H2AX (HeLa cells [2]; Fe(II)-H2O2 + 10 μM compound): 2.71±0.32 Fold of Control | Fluorescence intensity of γ-H2AX (HeLa cells [2]; Fe(II)-H2O2 + 20 μM compound): 1.66±0.46 Fold of Control | Fluorescence intensity of γ-H2AX (HeLa cells [2]; Fe(II)-H2O2 + 50 μM compound): 1.26±0.23 Fold of Control | Fluorescence intensity of calcein-AM (LIP level) (HeLa cells [3]; 20 μM Fe(II) + 2 μM compound, Fe(II) alone 0.64±0.04): 0.65±0.00 Fold of Control | Fluorescence intensity of calcein-AM (LIP level) (HeLa cells [3]; 20 μM Fe(II) + 20 μM compound, Fe(II) alone 0.64±0.04): 0.73±0.02 Fold of Control | Fluorescence intensity of calcein-AM (LIP level) (HeLa cells [3]; 20 μM Fe(II) + 50 μM compound, Fe(II) alone 0.63-0.64): 0.89±0.04 Fold of Control | Inhibition of Fe(II)–H2O2-induced DNA strand breaks, in words (plasmid pBR322 DNA [4]): significantly inhibited | LogKow [5]: 2.01 ± 0.02 | Fluorescence intensity of calcein-AM (LIP level) (HeLa cells [6]): 0.97±0.03 Fold of Control | Fluorescence inside the cells after incubation (crossing the cell membrane), in words (HeLa cells [7]): significantly increase | Inhibitory effect against Fe(III)-citrate-Vc-H2O2 induced •OH generation, in words [8]: completely inhibited | Concentration with the stated inhibition of Fe(III)-citrate-Vc-H2O2 induced •OH generation ([8]; CAPE completely, CA significantly): 200 µM | Reduction potential of Fe(III) chelated by compound [9]: −1.00 V
